Assay [1] deals with T1, STP10 (AtSTP10) (Arabidopsis thaliana, UniProt Q9LT15).
T1 sequence (Q9LT15 1-514): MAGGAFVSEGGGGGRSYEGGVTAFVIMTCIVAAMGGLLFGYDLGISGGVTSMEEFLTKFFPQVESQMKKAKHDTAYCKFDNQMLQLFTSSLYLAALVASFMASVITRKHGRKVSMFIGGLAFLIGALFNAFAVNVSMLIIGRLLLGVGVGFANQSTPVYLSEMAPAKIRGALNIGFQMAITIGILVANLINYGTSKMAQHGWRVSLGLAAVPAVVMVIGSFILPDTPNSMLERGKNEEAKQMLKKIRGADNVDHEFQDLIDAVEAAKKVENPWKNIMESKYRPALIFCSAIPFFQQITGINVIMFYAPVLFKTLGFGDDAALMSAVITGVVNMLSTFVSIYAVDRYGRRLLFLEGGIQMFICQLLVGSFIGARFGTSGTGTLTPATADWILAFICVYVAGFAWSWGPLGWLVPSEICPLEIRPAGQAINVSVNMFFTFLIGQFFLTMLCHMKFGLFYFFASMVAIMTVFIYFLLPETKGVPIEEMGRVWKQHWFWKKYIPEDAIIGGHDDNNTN
As to the kind of experiment: competition of […]glucose uptake in STP10-expressing yeast; also direct […]galactose uptake. Particulars: 10 µM [14C]glucose, 10-fold excess (100 µM) unlabelled competitor. It is filed as cell-based.

Assay [2] addresses T1, STP10 (AtSTP10). As to the kind of experiment: competition of […]glucose uptake in STP10-expressing yeast. The note with it: 10 µM [14C]glucose, 10-fold excess (100 µM) unlabelled competitor. It is filed as cell-based.

Structures are written as SMILES.

For `OC[C@H]1OC(O)[C@H](O)[C@@H](O)[C@H]1O` (some centres unmarked) [galactose], the “% remaining [14C]glucose uptake” value at STP10 (AtSTP10) [1] is on record as 41%.

Take `OC[C@H]1OC(O)[C@@H](O)[C@@H](O)[C@@H]1O` (some centres unmarked) [mannose]: the “% remaining [14C]glucose uptake” value at STP10 (AtSTP10) [2] worked out at 64%.

The values above are taken from PMC4809294, “STP10 encodes a high-affinity monosaccharide transporter and is induced under low-glucose conditions in pollen tubes of Arabidopsis” (Journal of Experimental Botany, 2016).
